How the values were obtained:
[1] = Storage stability of the amorphous state (XRPD assessment); type: physicochemical; details: single polyethylene bag, 2 months
Protocol: For quantitative XRPD assessment ZnO (XRPD spectrum FIG. 3A) was used as internal standard. Three characteristics peaks of crystalline sylibinin (2-theta: 20.7, 22.3 and 24.5°) were chosen for the quantitative determination of the crystalline form and peaks at 2-theta: 56.6 and 62.8° of the internal standard (IS, ZnO) were used as reference as reported in FIG. 3B.
XRPD spectra were obtained using X'Pert diffractometer from PANalytical, using the following parameters for acquisition and data processing:
Silibinin samples obtained according to the present invention were stored at 4±2° C. at 60% R.H., 25±2° C. at 60±5% R.H. and 40±2° C. at 60±5% R.H., in a single polyethylene bag for 2 months. After this time the samples were analyzed by XRPD.

[2] = Solubility (HPLC - Ph. Eur. 01/2007:2071) after 30 min; type: physicochemical
Protocol: A “silibinin release rate of 80% or greater” means that the amorphous silibinin is at least 80% soluble in aqueous solution (standard according to Ph. Eur.).
Several lots of silibinin manufactured according to the method of the invention, including steps L and M, were analyzed using the XRPD method described in example 2.
Solubility of this product (HPLC—Ph. Eur. 01/2007:2071) after 30 min. is higher than 80%. Conversely the silibinin obtained according to the method of the invention without performing steps L and M, though of high chemical purity is mainly crystalline (typically more than 70% crystalline).
Solubility of this product (HPLC—Ph. Eur. 01/2007:2071) after 30 min. is lower than 80%.

| SMILES | stability of amorphous state (XRPD) ([1]; 25±2° C. at 60±5% R.H.) | stability of amorphous state (XRPD) ([1]; 4±2° C. at 60% R.H.) | stability of amorphous state (XRPD) ([1]; 40±2° C. at 60±5% R.H.) | Solubility (HPLC - Ph. Eur. 01/2007:2071) [2] |
| --- | --- | --- | --- | --- |
| COc1cc(C2Oc3cc(C4Oc5cc(O)cc(O)c5C(=O)C4O)ccc3OC2CO)ccc1O (stereo not drawn) [amorphous silibinin samples, containing about 10% of crystal] [reference compound] | extended crystallization |  |  |  |
| COc1cc(C2Oc3cc(C4Oc5cc(O)cc(O)c5C(=O)C4O)ccc3OC2CO)ccc1O (stereo not drawn) [amorphous silibinin, silibinin] | stable | stable | stable | higher than 80% |
| COc1cc(C2Oc3cc(C4Oc5cc(O)cc(O)c5C(=O)C4O)ccc3OC2CO)ccc1O (stereo not drawn) [silibinin obtained without performing steps L and M] [reference compound] |  |  |  | lower than 80% |

— patent US8614341B2, “Amorphous silibinin for the treatment of viral hepatitis” (Euromed S.A., priority 2009, dated 2013)
